Source: ChEMBL document CHEMBL1201862, “PubChem BioAssay data set” (2004)
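48-hour exposure; five concentrations; linearly interpolated endpoints. GI50 is the concentration that inhibits growth by half.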 The source made the active and inactive calls. Cut-off read from the data, not from the text of the source: active = GI50 up to about 1.1 µM and inactive = higher. Non-standard residues stand in square brackets, D forms with d. Residues, ends and D or L forms follow the SMILES beside them. *: point of attachment. Ac5c = NC1(C(=O)O)CCCC1; Boc = CC(C)(C)OC(=O)*; tBu = CC(C)(C)*

Assays:
Assay in all cases: NCI tumour cell line growth inhibition, 48 h
786-0 = system: 786-0
ACHN = system: ACHN
CAKI-1 = system: CAKI-1
CCRF-CEM = system: CCRF-CEM
COLO 205 = system: COLO 205
DU-145 = system: DU-145
EKVX = system: EKVX
HCC 2998 = system: HCC 2998
HCT-116 = system: HCT-116
HCT-15 = system: HCT-15
HL-60 = system: HL-60
HOP-62 = system: HOP-62
HOP-92 = system: HOP-92
HT-29 = system: HT-29
Hs-578T = system: Hs-578T
IGROV-1 = system: IGROV-1
K562 = system: K562
KM12 = system: KM12
LOX IMVI = system: LOX IMVI
M14 = system: M14
MCF7 = system: MCF7
MDA-MB-231 = system: MDA-MB-231
MDA-MB-435 = system: MDA-MB-435
MDA-N = system: MDA-N
MOLT-4 = system: MOLT-4
Malme-3M = system: Malme-3M
NCI-H226 = system: NCI-H226
NCI-H23 = system: NCI-H23
NCI-H460 = system: NCI-H460
NCI-H522 = system: NCI-H522
NCI/ADR-RES = system: NCI/ADR-RES
OVCAR-3 = system: OVCAR-3
OVCAR-4 = system: OVCAR-4
OVCAR-5 = system: OVCAR-5
OVCAR-8 = system: OVCAR-8
PC-3 = system: PC-3
RPMI-8226 = system: RPMI-8226
RXF 393 = system: RXF 393
SF-268 = system: SF-268
SF-295 = system: SF-295
SF-539 = system: SF-539
SK-MEL-28 = system: SK-MEL-28
SK-MEL-5 = system: SK-MEL-5
SK-OV-3 = system: SK-OV-3
SN12C = system: SN12C
SNB-19 = system: SNB-19
SR = system: SR
SW-620 = system: SW-620
T47D = system: T47D
TK-10 = system: TK-10
U-251 = system: U-251
UACC-257 = system: UACC-257
UACC-62 = system: UACC-62
A498 = system: A498
A549 = system: A549
SK-MEL-2 = system: SK-MEL-2
SNB-75 = system: SNB-75
UO-31 = system: UO-31

`CC(OC(C)(C)C)C1NC(=O)C(CCCCNC(=O)OC(C)(C)C)NC(=O)C(Cc2c[nH]c3ccccc23)NC(=O)C(Cc2ccccc2)NC(=O)C2(CCCC2)NC(=O)C(Cc2ccccc2)NC1=O` (stereo not given) (cyclo([Ac5c]FWK(Boc)T(tBu)F); configuration not given here) was tested, and the GI50 (786-0) was 16 µM (inactive), the GI50 (ACHN) was 32.4 µM (inactive) and the GI50 (CAKI-1) was 42.9 µM (inactive). For the same compound, the GI50 (CCRF-CEM) was 28.2 µM (inactive), the GI50 (COLO 205) was 20.4 µM (inactive) and the GI50 (DU-145) was 50.9 µM (inactive). The GI50 (EKVX) was 41.5 µM (inactive), the GI50 (HCC 2998) was 19 µM (inactive) and the GI50 (HCT-116) was 33.3 µM (inactive). For the same compound, the GI50 (HCT-15) was greater than 100 µM, the GI50 (HL-60) was 17.5 µM (inactive) and the GI50 (HOP-62) was 49.4 µM (inactive). For the same compound, the GI50 (HOP-92) was 23.5 µM (inactive), the GI50 (HT-29) was 24 µM (inactive) and the GI50 (Hs-578T) was 33.3 µM (inactive). The GI50 (IGROV-1) was 16.2 µM (inactive), the GI50 (K562) was 27.8 µM (inactive) and the GI50 (KM12) was 29.4 µM (inactive). For the same compound, the GI50 (LOX IMVI) was 19.2 µM (inactive), the GI50 (M14) was 16.7 µM (inactive) and the GI50 (MCF7) was 18.5 µM (inactive). The GI50 (MDA-MB-231) was 17.5 µM (inactive), the GI50 (MDA-MB-435) was 14.7 µM (inactive) and the GI50 (MDA-N) was 43.2 µM (inactive). The GI50 (MOLT-4) was 7.71 µM (inactive), the GI50 (Malme-3M) was 27.3 µM (inactive) and the GI50 (NCI-H226) was 21.5 µM (inactive). For the same compound, the GI50 (NCI-H23) was 36.9 µM (inactive), the GI50 (NCI-H460) was 36.7 µM (inactive) and the GI50 (NCI-H522) was 21.4 µM (inactive). For the same compound, the GI50 (NCI/ADR-RES) was > 100 µM (inactive), the GI50 (OVCAR-3) was 26 µM (inactive) and the GI50 (OVCAR-4) was 49.9 µM (inactive). The GI50 (OVCAR-5) was 72.6 µM (inactive), the GI50 (OVCAR-8) was 50.2 µM (inactive) and the GI50 (PC-3) was 26.9 µM (inactive). For the same compound, the GI50 (RPMI-8226) was 10.7 µM (inactive), the GI50 (RXF 393) was 37.5 µM (inactive) and the GI50 (SF-268) was 16.6 µM (inactive). For the same compound, the GI50 (SF-295) was 29.9 µM (inactive), the GI50 (SF-539) was 36.9 µM (inactive) and the GI50 (SK-MEL-28) was 22.3 µM (inactive). For the same compound, the GI50 (SK-MEL-5) was 15.9 µM (inactive), the GI50 (SK-OV-3) was 68.4 µM (inactive) and the GI50 (SN12C) was 29.9 µM (inactive). The GI50 (SNB-19) was 34.2 µM (inactive), the GI50 (SR) was 32.2 µM (inactive) and the GI50 (SW-620) was 22.9 µM (inactive). For the same compound, the GI50 (T47D) was 10.4 µM (inactive), the GI50 (TK-10) was 24.8 µM (inactive) and the GI50 (U-251) was 15.8 µM (inactive). For the same compound, the GI50 (UACC-257) was 20.7 µM (inactive) and the GI50 (UACC-62) was 21.6 µM (inactive).
In the case of `CC(=O)N1CN2C(=O)CCC2c2cc(C)ccc21` (stereo not given), the GI50 (786-0) is reported as > 100 µM (inactive), the GI50 (A498) is reported as > 100 µM (inactive) and the GI50 (A549) is reported as > 100 µM (inactive). For the same compound, the GI50 (ACHN) was > 100 µM (inactive), the GI50 (CAKI-1) was > 100 µM (inactive) and the GI50 (CCRF-CEM) was > 100 µM (inactive). The GI50 (COLO 205) was > 100 µM (inactive), the GI50 (DU-145) was > 100 µM (inactive) and the GI50 (EKVX) was > 100 µM (inactive). For the same compound, the GI50 (HCC 2998) was > 100 µM (inactive), the GI50 (HCT-116) was > 100 µM (inactive) and the GI50 (HCT-15) was greater than 100 µM. For the same compound, the GI50 (HL-60) was > 100 µM (inactive), the GI50 (HOP-62) was > 100 µM (inactive) and the GI50 (HOP-92) was > 100 µM (inactive). The GI50 (HT-29) was > 100 µM (inactive), the GI50 (Hs-578T) was > 100 µM (inactive) and the GI50 (IGROV-1) was > 100 µM (inactive). The GI50 (K562) was > 100 µM (inactive), the GI50 (KM12) was > 100 µM (inactive) and the GI50 (LOX IMVI) was > 100 µM (inactive). For the same compound, the GI50 (M14) was > 100 µM (inactive), the GI50 (MCF7) was > 100 µM (inactive) and the GI50 (MDA-MB-231) was > 100 µM (inactive). The GI50 (MDA-MB-435) was > 100 µM (inactive), the GI50 (MDA-N) was > 100 µM (inactive) and the GI50 (MOLT-4) was > 100 µM (inactive). The GI50 (Malme-3M) was > 100 µM (inactive), the GI50 (NCI-H226) was > 100 µM (inactive) and the GI50 (NCI-H23) was > 100 µM (inactive). For the same compound, the GI50 (NCI-H460) was > 100 µM (inactive), the GI50 (NCI-H522) was > 100 µM (inactive) and the GI50 (NCI/ADR-RES) was > 100 µM (inactive). For the same compound, the GI50 (OVCAR-3) was > 100 µM (inactive), the GI50 (OVCAR-4) was > 100 µM (inactive) and the GI50 (OVCAR-5) was > 100 µM (inactive). For the same compound, the GI50 (OVCAR-8) was > 100 µM (inactive), the GI50 (PC-3) was > 100 µM (inactive) and the GI50 (RPMI-8226) was > 100 µM (inactive). The GI50 (RXF 393) was > 100 µM (inactive), the GI50 (SF-268) was > 100 µM (inactive) and the GI50 (SF-295) was > 100 µM (inactive). For the same compound, the GI50 (SF-539) was > 100 µM (inactive), the GI50 (SK-MEL-28) was > 100 µM (inactive) and the GI50 (SK-MEL-2) was > 100 µM (inactive). The GI50 (SK-MEL-5) was > 100 µM (inactive), the GI50 (SK-OV-3) was > 100 µM (inactive) and the GI50 (SN12C) was > 100 µM (inactive). The GI50 (SNB-19) was > 100 µM (inactive), the GI50 (SNB-75) was > 100 µM (inactive) and the GI50 (SW-620) was > 100 µM (inactive). The GI50 (T47D) was > 100 µM (inactive), the GI50 (TK-10) was > 100 µM (inactive) and the GI50 (U-251) was > 100 µM (inactive). For the same compound, the GI50 (UACC-257) was > 100 µM (inactive), the GI50 (UACC-62) was > 100 µM (inactive) and the GI50 (UO-31) was > 100 µM (inactive).
